Data taken from patent US11479525B2, “Propenylamines and methods of making and using same” (3M INNOVATIVE PROPERTIES COMPANY, priority 2016, dated 2022).

Assay: Atmospheric lifetime from the rate of reaction with hydroxyl radicals, relative to reference compounds (FTIR gas cell)
Format: physicochemical
Conditions: gas phase reaction with hydroxyl radical relative to chloromethane/ethane; for Atmospheric Lifetime, E-isomer: E-isomer of the 1-propenylamine; for Atmospheric Lifetime, Z-isomer: Z-isomer of the 1-propenylamine
Procedure: The atmospheric lifetimes of 1-propenylamines were determined from their rate of reaction with hydroxyl radicals. The pseudo-first order rates for the reaction of the gaseous 1-propenylamines with hydroxyl radical were measured in a series of experiments relative to reference compounds such as chloromethane and ethane. The measurements were performed in a 5.7 L, heated FTIR gas cell equipped with a polished semiconductor-grade quartz window. An Oriel Instruments UV Lamp, Model 66921 equipped with a 480 W mercury-xenon bulb was used to generate hydroxyl radicals by photolyzing ozone in the presence of water vapor. The concentrations of the 1-propenylamine and the reference compound were measured as a function of reaction time using an I-Series FTIR from Midac Corporation. The atmospheric lifetimes were calculated from the reaction rates for the 1-propenylamines relative to the reference compounds and the reported lifetime of the reference compounds as shown below:
[formula] where τx is the atmospheric lifetime of the 1-propenylamine, τr is the atmospheric lifetime of the reference compound, and kx and kr are the rate constants for the reaction of hydroxyl radical with the isomeric 1-propenylamines and the reference compound, respectively.

Structure (SMILES) | Atmospheric Lifetime, E-isomer [Yrs] | Atmospheric Lifetime, Z-isomer [Yrs]
FC(=C(F)C(F)(F)F)N(C(F)(F)F)C(F)(F)F [(CF3)2N—CF═CFCF3, 1,2,3,3,3-pentafluoro-N,N-bis(trifluoromethyl)prop-1-en-1-amine] | 0.71 | 1.9
FC(=C(F)C(F)(F)F)N(C(F)(F)F)C(F)(F)C(F)(F)F [C2F5(CF3)N—CF═CFCF3] | 1.4 | 3.5
